Assay results published in patent US20240158446A1, “CYCLIC COMPOUND HAVING SELECTIVE INHIBITORY ACTION ON KRAS OVER HRAS AND NRAS” (CHUGAI SEIYAKU KABUSHIKI KAISHA, priority 2021, published 2024).
Where two headings read alike, the source gives them in different places. *1 amine or outer side, *2 acyl side, *3 side chain or, on linkers, in order; H or OH if unused. Where a SMILES comes first, the peptide text is derived from it. Bridges are numbered along the chain shown (N, C = ends). [ ]: non-standard residue; d: D form. The star is where a group is joined. hPhe(3,5-F2-4-CF3) = N[C@@H](CCc1cc(F)c(C(F)(F)F)c(F)c1)C(=O)O; hPhe(3-Cl-4-CF3) = N[C@@H](CCc1ccc(C(F)(F)F)c(Cl)c1)C(=O)O; NPrPhe(4-CF3) = CCCN[C@@H](Cc1ccc(C(F)(F)F)cc1)C(=O)O; X29 = CN([C@@H](CCCC=[*:3])C(=O)[*:2])[*:1]; dαMeAlg = C[C@](CC=[*:3])(N[*:1])C(=O)[*:2]; NMeGly(cPent) = CN[C@H](C(=O)O)C1CCCC1; Pro(4,4-F2) = O=C(O)[C@@H]1CC(F)(F)CN1; Hyp = O=C(O)[C@@H]1C[C@@H](O)CN1; NMeD = CN[C@@H](CC(=O)O)C(=O)O; NMeL = CN[C@@H](CC(C)C)C(=O)O; NMeAbu = CC[C@H](NC)C(=O)O; Iva = CC[C@](C)(N)C(=O)O; Morpholide = C1CN(*)CCO1; NMeA = CN[C@@H](C)C(=O)O; Ac5c = NC1(C(=O)O)CCCC1; Aze = O=C(O)[C@@H]1CCN1; NEtG = CCNCC(=O)O; Sar = CNCC(=O)O

What was measured:
[1] = target: GDP-bound KRAS wild-type protein (Homo sapiens, UniProt P01116); test: Binding to KRAS by surface plasmon resonance (SPR), Single Cycle Kinetics; details: GDP-bound KRAS wild-type protein, read-out: KRAS KD
GDP-bound KRAS wild-type protein, sequence (P01116 whole entry): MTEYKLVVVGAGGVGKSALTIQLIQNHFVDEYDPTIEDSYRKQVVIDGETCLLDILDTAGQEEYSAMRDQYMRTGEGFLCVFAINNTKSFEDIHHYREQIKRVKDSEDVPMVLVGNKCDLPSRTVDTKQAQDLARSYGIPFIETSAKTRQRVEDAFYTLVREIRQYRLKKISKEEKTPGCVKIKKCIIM

[2] = target: GDP-bound HRAS wild-type protein (Homo sapiens, UniProt P01112); test: Binding to HRAS by surface plasmon resonance (SPR), Single Cycle Kinetics; details: SPR, GDP-bound HRAS wild-type protein vs GDP-bound KRAS wild-type protein
GDP-bound HRAS wild-type protein, sequence (P01112 whole entry): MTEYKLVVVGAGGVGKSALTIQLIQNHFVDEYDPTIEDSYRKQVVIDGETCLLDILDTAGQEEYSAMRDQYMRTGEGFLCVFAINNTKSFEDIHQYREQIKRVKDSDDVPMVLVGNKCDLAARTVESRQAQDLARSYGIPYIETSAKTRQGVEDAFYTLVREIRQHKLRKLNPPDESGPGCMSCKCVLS

[3] = target: GDP-bound NRAS wild-type protein (Homo sapiens, UniProt P01111); test: Binding to NRAS by surface plasmon resonance (SPR), Single Cycle Kinetics; details: SPR, GDP-bound NRAS wild-type protein vs GDP-bound KRAS wild-type protein
GDP-bound NRAS wild-type protein, sequence (P01111 whole entry): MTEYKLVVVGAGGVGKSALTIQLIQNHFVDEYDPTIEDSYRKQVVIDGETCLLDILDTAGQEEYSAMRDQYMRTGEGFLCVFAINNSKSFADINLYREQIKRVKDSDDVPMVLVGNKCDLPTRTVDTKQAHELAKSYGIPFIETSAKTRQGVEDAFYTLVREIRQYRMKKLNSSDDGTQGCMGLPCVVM

[4] = SPR Single Cycle Kinetics, 1:1 binding model

Kd [1, 4] [pM]	Kd ([1]; SPR, Single Cycle Kinetics) [pM]	Structure (SMILES)	HRAS/KRAS (ratio of KD value for HRAS to KD value for KRAS) [2]	NRAS/KRAS (ratio of KD value for NRAS to KD value for KRAS) [3]	further results
160		CCCN1C(=O)[C@@H]2CCN2C(=O)CN(C)C(=O)[C@H]([C@@H](C)CC)NC(=O)[C@H](CC(C)C)N(C)C(=O)C[C@@H](C(=O)N(C)C)NC(=O)[C@H](C2CCCC2)N(C)C(=O)C2(CCCC2)NC(=O)[C@@H]2C[C@@H](OCC)CN2C(=O)[C@H](CCc2ccc(C(F)(F)F)c(Cl)c2)NC(=O)CN(C)C(=O)[C@@H]1Cc1ccc(C(F)(F)F)cc1 [PP0389] ([NMeL]I[Sar][Aze][NPrPhe(4-CF3)][Sar][hPhe(3-Cl-4-CF3)][Hyp](Et)[Ac5c][NMeGly(cPent)]D-NMe2; lactam N-11)	B (a compound having 3 or more and less than 10 is denoted as B)	C (A compound having a KD ratio of 0.1 or more and less than 3 is denoted as C)	
71		CCCN1C(=O)[C@@H]2CCN2C(=O)[C@H](C)N(C)C(=O)[C@H]([C@@H](C)CC)NC(=O)[C@H](CC)N(C)C(=O)C[C@@H](C(=O)N2CCOCC2)N(C)C(=O)[C@H](C2CCCC2)N(C)C(=O)C2(CCCC2)NC(=O)[C@@H]2CC(F)(F)CN2C(=O)[C@H](CCc2ccc(C(F)(F)F)c(Cl)c2)NC(=O)CN(C)C(=O)[C@@H]1Cc1ccc(C(F)(F)F)cc1 [PP0206] ([NMeAbu]I[NMeA][Aze][NPrPhe(4-CF3)][Sar][hPhe(3-Cl-4-CF3)][Pro(4,4-F2)][Ac5c][NMeGly(cPent)][NMeD]-Morpholide; lactam N-11)	B (a compound having 3 or more and less than 10 is denoted as B)	C (A compound having a KD ratio of 0.1 or more and less than 3 is denoted as C)	
		CC[C@H](C)[C@@H]1NC(=O)[C@H](CC2CC2)N(C)C(=O)C[C@@H](C(=O)N(C)C)N(C)C(=O)[C@H](C2CCCC2)N(C)C(=O)C2(CC(C)(C)C2)NC(=O)[C@@H]2C[C@@H](F)CN2C(=O)[C@H](CCc2cc(F)c(C(F)(F)F)c(F)c2)NC(=O)CN(C)C(=O)[C@H](Cc2ccc(C(F)(F)F)cc2)N2CC/C=C\C[C@@H](C2=O)N(C)C(=O)CN(C)C1=O [PP1501, (2S,8S,12R,14S,20S,23S,27S,30S,36S,38Z)-20-cyclopentyl-27-(cyclopropylmethyl)-8-[2-[3,5-difluoro-4-(trifluoromethyl)phenyl]ethyl]-12-fluoro-N,N,3′,3′,4,19,22,26,32,35-decamethyl-30-[(1S)-1-methylpropyl]-3,6,9,15,18,21,25,28,31,34,42-undecaoxo-2-[[4-(trifluoromethyl)phenyl]methyl]spiro[1,4,7,10,16,19,22,26,29,32,35-undecazatricyclo[34.5.1.0^10,14]dotetracont-38-ene-17,1′-cyclobutane]-23-carboxamide]			Kd ([1]; SPR, Single Cycle Kinetics, 1:1 binding model): 24 pM; HRAS/KRAS (ratio of KD value for HRAS to KD value for KRAS) ([2]; KD ratio class): A (a compound having 10 or more and less than 20 is denoted as A); NRAS/KRAS (ratio of KD value for NRAS to KD value for KRAS) ([3]; KD ratio class): A (a compound having 10 or more and less than 20 is denoted as A)
1300		CCCN1C(=O)CN(C)C(=O)CN(CC)C(=O)[C@H]([C@@H](C)CC)NC(=O)[C@H](CC(C)C)N(C)C(=O)C[C@@H](C(=O)N2CCOCC2)NC(=O)[C@H](C2CCCC2)N(C)C(=O)C2(CCCC2)NC(=O)[C@@H]2C[C@@H](OCC)CN2C(=O)[C@H](CCc2ccc(C(F)(F)F)c(Cl)c2)NC(=O)CN(C)C(=O)[C@@H]1Cc1ccc(C(F)(F)F)cc1 [PP0335] ([NMeL]I[NEtG][Sar][NPrPhe(4-CF3)][Sar][hPhe(3-Cl-4-CF3)][Hyp](Et)[Ac5c][NMeGly(cPent)]D-Morpholide; lactam N-11)	C (A compound having a KD ratio of 0.1 or more and less than 3 is denoted as C)	B (a compound having 3 or more and less than 10 is denoted as B)	
	250	CCO[C@@H]1C[C@H]2C(=O)NC3(CC(C)(C)C3)C(=O)N(C)[C@@H](C(CC)CC)C(=O)N(C)[C@H](C(=O)N(C)C)CC(=O)N(C)[C@@H](CC)C(=O)N[C@@H]([C@@H](C)CC)C(=O)N(C)CC(=O)N(C)[C@H]3C/C=C\CCN(C3=O)[C@@H](Cc3ccc(C(F)(F)F)cc3)C(=O)N(C)CC(=O)N[C@@H](CCc3ccc(C(F)(F)F)c(OC)c3)C(=O)N2C1 [PP2066]	B (a compound having 3 or more and less than 10 is denoted as B)	A (a compound having 10 or more and less than 20 is denoted as A)	
490		CCCN1C(=O)CN(C)C(=O)CN(C)C(=O)[C@H]([C@@H](C)CC)NC(=O)[C@H](CC(C)C)N(C)C(=O)C[C@@H](C(=O)N2CCOCC2)N(C)C(=O)[C@H](C2CCCC2)N(C)C(=O)[C@](C)(CC)NC(=O)[C@@H]2CCCN2C(=O)[C@H](CCc2cc(F)c(C(F)(F)F)c(F)c2)NC(=O)CN(C)C(=O)[C@@H]1Cc1ccc(C(F)(F)F)cc1 [PP0754] ([NMeL]I[Sar][Sar][NPrPhe(4-CF3)][Sar][hPhe(3,5-F2-4-CF3)]P[Iva][NMeGly(cPent)][NMeD]-Morpholide; lactam N-11)			HRAS/KRAS (ratio of KD value with respect to HRAS to KD value with respect to KRAS) [2]: C (A compound having a KD ratio of 0.1 or more and less than 3 is denoted as C); NRAS/KRAS (ratio of KD value with respect to NRAS to KD value with respect to KRAS) [3]: B (a compound having 3 or more and less than 10 is denoted as B)
	55	CCO[C@@H]1C[C@H]2C(=O)NC3(CCC3)C(=O)N(C)[C@@H](C3CCCC3)C(=O)N(C)[C@H](C(=O)N(C)C)CC(=O)N(C)[C@@H](CC(C)C)C(=O)N[C@@H]([C@@H](C)CC)C(=O)N3CC[C@H]3C(=O)N(C)[C@H]3C[C@@H](C)CCN(C3=O)[C@@H](Cc3ccc(C(F)(F)F)cc3)C(=O)N(C)CC(=O)N[C@@H](CCc3cc(F)c(C(F)(F)F)c(F)c3)C(=O)N2C1 [PP1019]	B (a compound having 3 or more and less than 10 is denoted as B)	C (A compound having a KD ratio of 0.1 or more and less than 3 is denoted as C)	
	210	CCC[C@H]1C(=O)N[C@@H](C2CCCC2)C(=O)N(C)CC(=O)N(C)[C@H]2C/C=C\CCN(C2=O)[C@@H](Cc2ccc(C)cc2)C(=O)N(C)CC(=O)N[C@@H](CCc2ccc(C(F)(F)F)c(Cl)c2)C(=O)N2C[C@H](OCC)C[C@H]2C(=O)NC2(CC(C)(C)C2)C(=O)N(C)[C@@H](C2CCCC2)C(=O)N(C)[C@H](C(=O)N(C)C)CC(=O)N1C [PP2198]	A (a compound having 10 or more and less than 20 is denoted as A)	A (a compound having 10 or more and less than 20 is denoted as A)	
	3000	CCCN1C(=O)CN(C)C(=O)CN(C)C(=O)[C@H]([C@@H](C)CC)NC(=O)[C@@H]2CCCC=CC[C@@](C)(NC(=O)[C@@H]3C[C@@H](OCC)CN3C(=O)[C@H](CCc3cc(F)c(C(F)(F)F)c(F)c3)NC(=O)CN(C)C(=O)[C@@H]1Cc1ccc(C(F)(F)F)cc1)C(=O)N(C)[C@@H](C1CCCC1)C(=O)N(C)[C@H](C(=O)N1CCOCC1)CC(=O)N2C [PP0901] ([X29]I[Sar][Sar][NPrPhe(4-CF3)][Sar][hPhe(3,5-F2-4-CF3)][Hyp](Et)[dαMeAlg][NMeGly(cPent)][NMeD]-Morpholide; staple 1-9; lactam N-11)	B (a compound having 3 or more and less than 10 is denoted as B)	B (a compound having 3 or more and less than 10 is denoted as B)	
	400	CCO[C@@H]1C[C@H]2C(=O)NC3(CC(C)(C)C3)C(=O)N(C)[C@@H](C(CC)CC)C(=O)N(C)[C@H](C(=O)N3CCCC3)CC(=O)N(C)[C@@H](COC)C(=O)N[C@@H]([C@@H](C)CC)C(=O)N(C)CC(=O)N(C)[C@H]3C/C=C\CCN(C3=O)[C@@H](Cc3ccc(C(F)(F)F)cc3)C(=O)N(C)CC(=O)N[C@@H](CCc3ccc(C(F)(F)F)c(Cl)c3)C(=O)N2C1 [PP2128]	A (a compound having 10 or more and less than 20 is denoted as A)	AA (a compound having 20 or more is denoted as AA)	

Structure (SMILES)	Kd [1, 4] [pM]	Kd ([1]; SPR, Single Cycle Kinetics) [pM]	HRAS/KRAS (ratio of KD value for HRAS to KD value for KRAS) [2]	NRAS/KRAS (ratio of KD value for NRAS to KD value for KRAS) [3]	further results
CCO[C@@H]1C[C@H]2C(=O)NC3(CCC3)C(=O)N(C)[C@@H](C3CCCC3)C(=O)N(C)[C@H](C(=O)N3CCCCC3)CC(=O)N(C)[C@H]3CCCCCCc4ccc(cc4)C[C@@H](C(=O)N(C)CC(=O)N[C@@H](CCc4ccc(C(F)(F)F)c(OC)c4)C(=O)N2C1)N1CC/C=C\C[C@@H](C1=O)N(C)C(=O)CN(C)C(=O)[C@H]([C@@H](C)CC)NC3=O [PP3033, (1S,7S,11R,13S,19S,22S,26S,29S,35S,37Z)-19-cyclopentyl-11-ethoxy-7-[2-[3-methoxy-4-(trifluoromethyl)phenyl]ethyl]-3,18,21,25,31,34-hexamethyl-29-[(1S)-1-methylpropyl]-22-(piperidine-1-carbonyl)spiro[3,6,9,15,18,21,25,28,31,34,41-undecazapentacyclo[24.15.11.2^43,46.1^35,41.0^9,13]pentapentaconta-37,43(54),44,46(53)-tetraene-16,1′-cyclobutane]-2,5,8,14,17,20,24,27,30,33,55-undecone]		180	B (a compound having 3 or more and less than 10 is denoted as B)	A (a compound having 10 or more and less than 20 is denoted as A)	
